# Patent US9447028B2, “Therapeutic aryl-amido-aryl compounds and their use” (King's College London, priority 2009, dated 2016)
# Experiments:
# Type in all cases: cell-based
# RARβ = target: T1, RARβ (Homo sapiens, UniProt P10826); test: Transactivation assay for RAR beta (gal4-RAR fusion, luciferase reporter, COS-7 cells); details: ratio of test compound EC50 to that of atRA; inactive = no agonist action at the highest concentration tested
# T1 construct: gal4 (fusion partner); expressed in transfected cells; host or cells: COS-7
# T1 sequence (P10826 183-417 limits assumed): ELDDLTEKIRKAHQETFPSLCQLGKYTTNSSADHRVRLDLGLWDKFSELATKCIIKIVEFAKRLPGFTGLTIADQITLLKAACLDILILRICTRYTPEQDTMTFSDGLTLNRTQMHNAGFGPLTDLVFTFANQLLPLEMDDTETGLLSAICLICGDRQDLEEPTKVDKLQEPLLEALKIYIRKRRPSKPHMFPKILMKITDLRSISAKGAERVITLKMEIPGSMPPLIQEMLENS
# Description: (§1) Transcriptional transactivation assays were performed with gal4 fusion receptor constructs, created using each of the RAR ligand binding domains, co-transfected with the pFR-luc (Stratagene™) reporter construct in COS-7 cells.
# (§2) Briefly, on day 1, 96 well plates were seeded with 8000 cells per well then left to recover overnight. On day 2, the cells were co-transfected with 100 ng of reporter plasmid and 10 ng of the appropriate receptor plasmid per well using lipofectamine (Invitrogen™). On day 3, the lipofectamine containing media was replaced by a DMEM without phenol red, followed by the addition of test compound dissolved in 1 μL of DMSO to each well's 100 μL total volume. Finally, on day 4, the cells were lysed and their luciferase substrate was provided by the BrightGlo™ reagent (Promega™), the plates were then read on the MicroBeta TriLux™ (Perkin Elmer™).
# (§3) Where replicate data has been generated, the data are quoted as a ratio of the mean EC50 from the separate experiments.
# RARγ = target: T2, RARγ (Homo sapiens, UniProt P13631); test: Transactivation assay for RAR gamma (gal4-RAR fusion, luciferase reporter, COS-7 cells); details: ratio of test compound EC50 to that of atRA; inactive = no agonist action at the highest concentration tested
# T2 construct: gal4 (fusion partner); expressed in transfected cells; host or cells: COS-7
# T2 sequence (P13631 185-419 limits assumed): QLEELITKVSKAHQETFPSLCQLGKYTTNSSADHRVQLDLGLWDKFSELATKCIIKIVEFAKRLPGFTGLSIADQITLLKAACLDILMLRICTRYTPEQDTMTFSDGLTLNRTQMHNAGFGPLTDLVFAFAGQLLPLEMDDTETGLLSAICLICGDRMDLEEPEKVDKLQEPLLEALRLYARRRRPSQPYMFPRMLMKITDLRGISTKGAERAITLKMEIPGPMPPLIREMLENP
# Description: as §1, §2, §3
# RARα = target: T3, RARα (Homo sapiens, UniProt P10276); test: Transactivation assay for RAR alpha (gal4-RAR fusion, luciferase reporter, COS-7 cells); details: for RARα/RARβ ratio (*): fold-selectivity for RARα over RARβ; for RARα activity ratio: ratio of test compound EC50 to that of atRA on the same plate; for Improvement (RARα activity ratio) / Improvement (RARα/RARβ ratio): compared with XXX-03
# T3 construct: gal4 (fusion partner); expressed in transfected cells; host or cells: COS-7
# T3 sequence (P10276 183-417 limits assumed): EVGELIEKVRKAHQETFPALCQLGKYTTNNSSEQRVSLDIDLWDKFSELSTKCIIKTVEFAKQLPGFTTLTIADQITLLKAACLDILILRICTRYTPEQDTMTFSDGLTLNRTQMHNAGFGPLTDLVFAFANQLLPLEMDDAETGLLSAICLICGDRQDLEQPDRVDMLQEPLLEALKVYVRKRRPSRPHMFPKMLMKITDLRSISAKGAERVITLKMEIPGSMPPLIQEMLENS
# Description: as §1, §2, §3
SMILES,RARβ activity ratio (RARβ),RARγ activity ratio (RARγ),RARα/RARβ ratio (*) (RARα),RARα activity ratio (RARα),Improvement (RARα activity ratio) (RARα),Improvement (RARα/RARβ ratio) (RARα)
"CC(C)Oc1cc(C(=O)Nc2ccc(C(=O)O)cc2)cc(OC(C)C)c1Br [AAA-107, 4-(4-Bromo-3,5-diisopropoxybenzamido)benzoic acid]",647,2833,135,4.8,,
"COCCOc1cc(C(=O)Nc2ccc(C(=O)O)c(F)c2)cc(Cl)c1OC [AAA-104, 4-(3-Chloro-4-methoxy-5-(2-methoxyethoxy)benzamido)-2-fluorobenzoic acid]",10164,5000,535,19,,
"COc1cc(C(=O)Nc2ccc(C(=O)O)cc2)cc(Cl)c1OC(C)C [AAA-083, 4-(3-Chloro-4-isopropoxy-5-methoxybenzamido)benzoic acid]",90,4390,10,9,,
"O=C(O)c1ccc(NC(=O)c2cc(Cl)c(OC3CCC3)c(Cl)c2)cc1 [AAA-011, 4-(3,5-Dichloro-4-cyclobutoxybenzamido)benzoic acid]",2960,21800,,,~2.6-fold,~12-fold
"COc1c(Cl)cc(C(=O)Nc2ccc(C(=O)O)c(C)c2)cc1OC1CCC1 [AAA-099, 4-(3-Chloro-5-cyclobutoxy-4-methoxybenzamido)-2-methylbenzoic acid]",655,89,59,11,,
"O=C(O)c1ccc(NC(=O)c2cc(Cl)c(OCc3ccccc3)c(Cl)c2)cc1 [AAA-005, 4-(4-(Benzyloxy)-3,5-dichlorobenzamido)benzoic acid]",3570,3770,,,~1.3-fold,~7.4-fold
"Cc1cc(NC(=O)c2cc(Cl)c(OC3CCC3)c(OC3CCC3)c2)ccc1C(=O)O [AAA-093, 4-(3-Chloro-4,5-di(cyclobutyloxy)benzamido)-2-methylbenzoic acid]",92,10833,46,2.0,,
"COc1c(Cl)cc(C(=O)Nc2ccc(C(=O)O)cn2)cc1C(F)(F)F [AAA-065, 6-(3-Chloro-4-methoxy-5-(trifluoromethyl)benzamido)nicotinic acid]",140,3521,9,15,,
"CCC(CC)Oc1cc(C(=O)Nc2ccc(C(=O)O)cc2)cc(Cl)c1OC [AAA-101, 4-(3-Chloro-4-methoxy-5-(pentan-3-yloxy)benzamido)benzoic acid]",39,375,23,1.7,,
"COC(=O)c1ccc(NC(=O)c2cc(Cl)c(OC3CCCC3)c(Cl)c2)cc1 [AAA-002, Methyl 4-(3,5-dichloro-4-(cyclopentyloxy)benzamido)benzoate]",2900,inactive,58.0,50,,
"O=C(O)c1ccc(NC(=O)c2cc(Cl)c(OC3CCC3)c(OC3CCC3)c2)cc1 [AAA-092, 4-(3-Chloro-4,5-di(cyclobutyloxy)benzamido)benzoic acid]",53,1059,27,2,,
"COc1c(OC(C)C)cc(C(=O)Nc2ccc(C(=O)O)cc2)cc1OC(C)C [AAA-062, 4-(3,5-Diisopropoxy-4-methoxybenzamido)benzoic acid]",714,5328,8,85,,
"Cc1cc(NC(=O)c2cc(Cl)c(OC(C)(C)C)c(OC(C)(C)C)c2)ccc1C(=O)O [AAA-049, 4-(3,4-Di-tert-butoxy-5-chlorobenzamido)-2-methylbenzoic acid]",8460,82,13200,0.64,,
"CC(C)Oc1c(Cl)cc(C(=O)Nc2ccc(C(=O)O)cc2)cc1Cl [AAA-004, 4-(3,5-Dichloro-4-isopropoxybenzamido)benzoic acid]",1420,820,,,~13-fold,~29-fold
"COc1c(Cl)cc(C(=O)Nc2ccc(C(=O)O)cc2)cc1Cl [AAA-030, 4-(3,5-Dichloro-4-methoxy-benzoylamino)-benzoic acid]",9525,5850,,,~3.1-fold,~46-fold
"CCOc1ccc(C(=O)Nc2ccc(C(=O)O)cc2)cc1C(F)(F)F [XXX-01, 4-(4-Ethoxy-3-(trifluoromethyl)benzamido)benzoic acid, reference compound]",2570,inactive,7.9,327,,
"CCOc1cc(C(=O)Nc2ccc(C(=O)O)c(F)c2)cc(OC(CC)CC)c1Cl [AAA-116, 4-(4-Chloro-3-ethoxy-5-(pentan-3-yloxy)benzamido)-2-fluorobenzoic acid]",208,55172,46,4.5,,

# Now from value to compound:
RARβ activity ratio (RARβ),RARγ activity ratio (RARγ),RARα/RARβ ratio (*) (RARα),RARα activity ratio (RARα),Improvement (RARα activity ratio) (RARα),Improvement (RARα/RARβ ratio) (RARα),SMILES
1453,>27000,161,9.0,,,"CCOc1c(Cl)cc(C(=O)Nc2ccc(C(=O)O)c(O)c2)cc1OC(C)C [AAA-081, 4-(3-Chloro-4-ethoxy-5-isopropoxybenzamido)-2-hydroxybenzoic acid]"
2000,11725,286,7,,,"CCOc1cc(C(=O)Nc2ccc(C(=O)O)c(C)c2)cc(Cl)c1OC(C)C [AAA-087, 4-(3-Chloro-5-ethoxy-4-isopropoxybenzamido)-2-methylbenzoic acid]"
60,194,55,1.1,,,"Cc1cc(NC(=O)c2cc(Cl)c(OC(C)C)c(C(F)(F)F)c2)ccc1C(=O)O [AAA-040, 4-(3-Chloro-4-isopropoxy-5-(trifluoromethyl)benzamido)-2-methylbenzoic acid]"
2386,>62500,701,3.4,,,"COc1c(Cl)cc(C(=O)Nc2ccc(C(=O)O)c(O)c2)cc1C(F)(F)F [AAA-070, 4-(3-Chloro-4-methoxy-5-(trifluoromethyl)benzamido)-2-hydroxybenzoic acid]"
9660,inactive,64.0,151,,,"CCOc1c(Cl)cc(C(=O)Nc2ccc(C(=O)O)c(Cl)c2)cc1Cl [AAA-018, 2-Chloro-4-(3,5-dichloro-4-ethoxybenzamido)benzoic acid]"
151,100000,58,2.6,,,"CCOc1c(Cl)cc(C(=O)Nc2ccc(C(=O)O)c(C)c2)cc1OCC1CC1 [AAA-097, 4-(3-Chloro-5-(cyclopropylmethoxy)-4-ethoxybenzamido)-2-methylbenzoic acid]"
177,2985,59,3.0,,,"CCOc1c(Cl)cc(C(=O)Nc2ccc(C(=O)O)c(C)c2)cc1C(F)(F)F [AAA-039, 4-(3-Chloro-4-ethoxy-5-(trifluoromethyl)benzamido)-2-methylbenzoic acid]"
216,75000,135,1.6,,,"CC(C)Oc1cc(C(=O)Nc2ccc(C(=O)O)c(O)c2)cc(Cl)c1OC(C)C [AAA-091, 4-(3-Chloro-4,5-diisopropoxybenzamido)-2-hydroxybenzoic acid]"
